# Experimental data as given in PubChem BioAssay AID2060502 (Molecular Pharmacology Branch, DTP, NCI, 2025).
# Test system: 885724-159-R-J1-PDC complex spheroid viability
# Assay: Anticancer human tumor 885724-159-R-J1-PDC patient-derived pancreatic adenocarcinoma cell line growth inhibition [GQUAD]
# Conditions: for IC50: curve of first compound; for viability, T/C: stronger effect = lower value
# Method in brief: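 Multi-cell-type spheroids of tumor cells with HUVEC and mesenchymal stem cells, treated with drug combinations. Concentrations descend in half-log steps from near clinical Cmax, or from 10 microM where Cmax is unknown; viability read-out.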
# [1] = second compound 0.0316 µM, first compound 0.0316 µM
# [2] = second compound 0.0316 µM, first compound 0.1 µM
# [3] = second compound 0.0316 µM, first compound 0.316 µM
# [4] = second compound 0.0316 µM, first compound 1 µM
# [5] = second compound 0.0316 µM, first compound 3.16 µM
# [6] = second compound 0.0316 µM, first compound 10 µM
# [7] = second compound 0.1 µM, first compound 0.0316 µM
# [8] = second compound 0.1 µM, first compound 0.1 µM
# [9] = second compound 0.1 µM, first compound 0.316 µM
# [10] = second compound 0.1 µM, first compound 1 µM
# [11] = second compound 0.1 µM, first compound 3.16 µM
# [12] = second compound 0.1 µM, first compound 10 µM
# [13] = second compound 0.316 µM, first compound 0.0316 µM
# [14] = second compound 0.316 µM, first compound 0.1 µM
# [15] = second compound 0.316 µM, first compound 0.316 µM
# [16] = second compound 0.316 µM, first compound 1 µM
# [17] = second compound 0.316 µM, first compound 3.16 µM
# [18] = second compound 0.316 µM, first compound 10 µM
# [19] = second compound 1 µM, first compound 0.0316 µM
# [20] = second compound 1 µM, first compound 0.1 µM
# [21] = second compound 1 µM, first compound 0.316 µM
# [22] = second compound 1 µM, first compound 1 µM
# [23] = second compound 1 µM, first compound 3.16 µM
# [24] = second compound 1 µM, first compound 10 µM
# [25] = second compound 3.16 µM, first compound 0.0316 µM
# [26] = second compound 3.16 µM, first compound 0.1 µM
# [27] = second compound 3.16 µM, first compound 0.316 µM
# [28] = second compound 3.16 µM, first compound 1 µM
# [29] = second compound 3.16 µM, first compound 3.16 µM
# [30] = second compound 3.16 µM, first compound 10 µM
# [31] = second compound 10 µM, first compound 0.0316 µM
# [32] = second compound 10 µM, first compound 0.1 µM
# [33] = second compound 10 µM, first compound 0.316 µM
# [34] = second compound 10 µM, first compound 1 µM
# [35] = second compound 10 µM, first compound 3.16 µM
# [36] = second compound 10 µM, first compound 10 µM
# 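Also: spheroids exposed to agents for seven days before readout.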
# 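For viability, T/C in this document: percent of vehicle control viability where 100% = DMSO wells.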
smiles,measurement,setting,value
COc1cc(C2c3cc4c(cc3C(OC3OC5COC(C)OC5C(O)C3O)C3COC(=O)C23)OCO4)cc(OC)c1O (stereo not drawn) + Cc1cnc(CNC(=O)c2c(=O)c3ccc(N4CCCN(C)CC4)nc3n3c2sc2ccccc23)cn1,IC50,second compound 0.0316 µM,> 10000 nM
same,IC50,second compound 0.1 µM,> 10000 nM
same,IC50,second compound 0.316 µM,> 10000 nM
same,IC50,second compound 1 µM,> 10000 nM
same,IC50,second compound 3.16 µM,> 10000 nM
same,IC50,second compound 10 µM,> 10000 nM
same,"viability, T/C",[1],113%
same,"viability, T/C",[2],98.3%
same,"viability, T/C",[3],101%
same,"viability, T/C",[4],91.5%
same,"viability, T/C",[5],84.5%
same,"viability, T/C",[6],82.4%
same,"viability, T/C",[7],116%
same,"viability, T/C",[8],107%
same,"viability, T/C",[9],90.2%
same,"viability, T/C",[10],100%
same,"viability, T/C",[11],95.2%
same,"viability, T/C",[12],81.9%
same,"viability, T/C",[13],108%
same,"viability, T/C",[14],105%
same,"viability, T/C",[15],102%
same,"viability, T/C",[16],91.1%
same,"viability, T/C",[17],84.8%
same,"viability, T/C",[18],79.3%
same,"viability, T/C",[19],105%
same,"viability, T/C",[20],87.2%
same,"viability, T/C",[21],97.8%
same,"viability, T/C",[22],89.6%
same,"viability, T/C",[23],84.8%
same,"viability, T/C",[24],76.1%
same,"viability, T/C",[25],79.8%
same,"viability, T/C",[26],81.4%
same,"viability, T/C",[27],87.6%
same,"viability, T/C",[28],84.2%
same,"viability, T/C",[29],83.5%
same,"viability, T/C",[30],71.1%
same,"viability, T/C",[31],81.7%
same,"viability, T/C",[32],79.5%
same,"viability, T/C",[33],76.7%
same,"viability, T/C",[34],82.4%
same,"viability, T/C",[35],78.3%
same,"viability, T/C",[36],70.7%
O=C(NO)c1cnc(N2CCN(S(=O)(=O)c3ccc4ccccc4c3)CC2)nc1 + Cc1[nH]c2ccc(F)cc2c1-c1nc2c3cccnc3c3ncccc3c2[nH]1,IC50,second compound 0.0316 µM,862 nM
same,IC50,second compound 0.1 µM,841 nM
same,IC50,second compound 0.316 µM,894 nM
same,IC50,second compound 1 µM,706 nM
same,IC50,second compound 3.16 µM,< 31.6 nM
same,IC50,second compound 10 µM,802 nM
same,"viability, T/C",[1],101%
same,"viability, T/C",[2],96.9%
same,"viability, T/C",[3],108%
same,"viability, T/C",[4],42.3%
same,"viability, T/C",[5],2.03%
same,"viability, T/C",[6],0.22%
same,"viability, T/C",[7],101%
same,"viability, T/C",[8],106%
same,"viability, T/C",[9],82%
same,"viability, T/C",[10],47.1%
same,"viability, T/C",[11],2.38%
same,"viability, T/C",[12],0.21%
same,"viability, T/C",[13],90.7%
same,"viability, T/C",[14],83%
same,"viability, T/C",[15],95.6%
same,"viability, T/C",[16],45.7%
same,"viability, T/C",[17],3.31%
same,"viability, T/C",[18],0.18%
same,"viability, T/C",[19],69.2%
same,"viability, T/C",[20],55.7%
same,"viability, T/C",[21],94.9%
same,"viability, T/C",[22],39.9%
same,"viability, T/C",[23],2.39%
same,"viability, T/C",[24],0.24%
same,"viability, T/C",[25],14.8%
same,"viability, T/C",[26],18.3%
same,"viability, T/C",[27],31.6%
same,"viability, T/C",[28],22.1%
same,"viability, T/C",[29],1.99%
same,"viability, T/C",[30],0.22%
same,"viability, T/C",[31],66.2%
same,"viability, T/C",[32],65.6%
same,"viability, T/C",[33],74.6%
same,"viability, T/C",[34],45.5%
same,"viability, T/C",[35],3.66%
same,"viability, T/C",[36],0.26%
CC1COCCN1c1cc(C2(O)CC3CCC(C2)O3)c2cnn(-c3ccn[nH]3)c2n1 (stereo not drawn) + Cc1[nH]c2ccc(F)cc2c1-c1nc2c3cccnc3c3ncccc3c2[nH]1,IC50,second compound 0.0316 µM,1890 nM
same,IC50,second compound 0.1 µM,1200 nM
same,IC50,second compound 0.316 µM,865 nM
same,IC50,second compound 1 µM,432 nM
same,IC50,second compound 3.16 µM,< 31.6 nM
same,IC50,second compound 10 µM,512 nM
same,"viability, T/C",[1],97.7%
same,"viability, T/C",[2],77.5%
same,"viability, T/C",[3],68.3%
same,"viability, T/C",[4],55.2%
same,"viability, T/C",[5],46%
same,"viability, T/C",[6],37.8%
same,"viability, T/C",[7],96.6%
same,"viability, T/C",[8],88%
same,"viability, T/C",[9],74.1%
same,"viability, T/C",[10],50.1%
same,"viability, T/C",[11],42.7%
same,"viability, T/C",[12],37.7%
same,"viability, T/C",[13],91%
same,"viability, T/C",[14],79%
same,"viability, T/C",[15],62.4%
same,"viability, T/C",[16],47.3%
same,"viability, T/C",[17],41.6%
same,"viability, T/C",[18],35.5%
same,"viability, T/C",[19],79.5%
same,"viability, T/C",[20],66%
same,"viability, T/C",[21],54.2%
same,"viability, T/C",[22],38.1%
same,"viability, T/C",[23],37.4%
same,"viability, T/C",[24],25.4%
same,"viability, T/C",[25],41.2%
same,"viability, T/C",[26],29.9%
same,"viability, T/C",[27],41.1%
same,"viability, T/C",[28],22.6%
same,"viability, T/C",[29],20.1%
same,"viability, T/C",[30],8.51%
same,"viability, T/C",[31],69.6%
same,"viability, T/C",[32],69%
same,"viability, T/C",[33],51%
same,"viability, T/C",[34],44.4%
same,"viability, T/C",[35],33.1%
same,"viability, T/C",[36],24.1%
CCCS(=O)(=O)Nc1ccc(F)c(C(=O)c2c[nH]c3ncc(-c4ccc(Cl)cc4)cc23)c1F + Cc1cnc(CNC(=O)c2c(=O)c3ccc(N4CCCN(C)CC4)nc3n3c2sc2ccccc23)cn1,IC50,second compound 0.0316 µM,> 10000 nM
same,IC50,second compound 0.1 µM,> 10000 nM
same,IC50,second compound 0.316 µM,> 10000 nM
same,IC50,second compound 1 µM,> 10000 nM
same,IC50,second compound 3.16 µM,> 10000 nM
same,IC50,second compound 10 µM,> 10000 nM
same,"viability, T/C",[1],95%
same,"viability, T/C",[2],106%
same,"viability, T/C",[3],113%
same,"viability, T/C",[4],141%
same,"viability, T/C",[5],126%
same,"viability, T/C",[6],74%
same,"viability, T/C",[7],124%
same,"viability, T/C",[8],128%
same,"viability, T/C",[9],116%
same,"viability, T/C",[10],135%
same,"viability, T/C",[11],128%
same,"viability, T/C",[12],83%
same,"viability, T/C",[13],94%
same,"viability, T/C",[14],103%
same,"viability, T/C",[15],96.3%
same,"viability, T/C",[16],98%
same,"viability, T/C",[17],102%
same,"viability, T/C",[18],72.2%
same,"viability, T/C",[19],97.6%
same,"viability, T/C",[20],84.6%
same,"viability, T/C",[21],96%
same,"viability, T/C",[22],96.7%
same,"viability, T/C",[23],115%
same,"viability, T/C",[24],70.6%
same,"viability, T/C",[25],76.7%
same,"viability, T/C",[26],75.2%
same,"viability, T/C",[27],78.8%
same,"viability, T/C",[28],80.3%
same,"viability, T/C",[29],91.6%
same,"viability, T/C",[30],58.7%
same,"viability, T/C",[31],62.8%
same,"viability, T/C",[32],71.2%
same,"viability, T/C",[33],61.1%
same,"viability, T/C",[34],73.4%
same,"viability, T/C",[35],76%
same,"viability, T/C",[36],50.2%
